Active and inactive are the calls of the source.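 The calls were made as follows: active = compounds whose fitted half-maximal toxic concentration is no more than twice their top tested dose; inconclusive = flat fit with 30 to 70% signal loss, or poor fit; inactive = the rest.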
Legend:
[1] = system: NIH-3T3 fibroblast viability, Alamar Blue fluorescence, 48 h; assay: mammalian cell viability loss – Alamar Blue, cherry-pick, cytotoxicity control for antifungal single agent project, dose response (AID 588634)
[2] = as above; conditions: NIH-3T3 fibroblast viability, Alamar Blue fluorescence, 48 h; at 26 µM (top of the series)

| SMILES | AC50 [1] | activity change, negative = toxicity [2] |
| --- | --- | --- |
| O=C(Oc1c(Cl)cc(Cl)c2cccnc12)c1ccco1 | 409 nM | – |
| COc1ccc(C)cc1N=Nc1ccc(O)c2ncccc12 | 303 nM | – |
| CCCCC(=O)NC(c1ccco1)c1cc(Cl)c2cccnc2c1O (stereo not drawn) | 705 nM | – |
| COc1cccc(/C=N/Nc2ncnc3scc(-c4ccccc4)c23)c1O | 2070 nM | – |
| O=[N+]([O-])c1cc(CN2CCN(c3ccccc3)CC2)c(O)c2ncccc12 | 109 nM | – |
| CCN(CC)S(=O)(=O)c1cc(OC)ccc1N=Nc1ccc(O)c2ncccc12 | 753 nM | – |
| COc1cccc(N=Nc2ccc(O)c3ncccc23)c1 | 279 nM | – |
| CCCCC(=O)NC(c1ccc(N(CC)CC)cc1)c1ccc2cccnc2c1O (stereo not drawn) | 1250 nM | – |
| O=Cc1ccc(O)c2ncccc12 | 913 nM | – |
| Cc1cc(NC(c2ccc(Cl)cc2)c2ccc3cccnc3c2O)no1 (stereo not drawn) | 3660 nM | – |
| CN1CCN(C(c2ccc(C(F)(F)F)cc2)c2ccc3cccnc3c2O)CC1 (stereo not drawn) | 852 nM | – |
| O=C(N/N=C/c1cc2c3c(c1O)CCCN3CCC2)c1ccccc1O | 6370 nM | – |
| C/C(=N\NC(=O)c1cc2ccccc2cc1O)c1ccccn1 | 1040 nM | – |
| Oc1c(C(Nc2nc3ccccc3s2)c2ccco2)ccc2cccnc12 (stereo not drawn) | 1850 nM | – |
| CN1CCN(C(c2ccc(C(F)(F)F)cc2)c2cc(Cl)c3cccnc3c2O)CC1 (stereo not drawn) | 1960 nM | – |
| CCOC(=O)N1C(=O)C2(CCCCC2)N(c2ccc(C)cc2)C1=S | – | -0.005% (inactive) |
| Cc1ccc(C(=O)c2coc3c2C(=O)C(=O)c2ccccc2-3)cc1 | 8170 nM | – |

| SMILES | AC50 [1] | activity change, negative = toxicity [2] |
| --- | --- | --- |
| CCCCC(=O)NC(c1ccc(Cl)cc1)c1ccc2cccnc2c1O (stereo not drawn) | 1090 nM | – |
| Oc1c(C(Nc2nccs2)c2ccc(C(F)(F)F)cc2)ccc2cccnc12 (stereo not drawn) | 1740 nM | – |
| O=C(N/N=C/c1c(O)ccc2ccccc12)c1cccc(C(F)(F)F)c1 | 4340 nM | – |
| C(C#CCCCCCCCCC[n+]1ccccc1)#CCCCCCCCCC[n+]1ccccc1 | – | -33.3% (inactive) |
| Oc1c(C(c2ccc(Cl)cc2)N2CCCC2)cc(Cl)c2cccnc12 (stereo not drawn) | 1470 nM | – |
| Oc1c(CN2CCN(c3ccccc3)CC2)cc(Br)c2cccnc12 | 1390 nM | – |
| CCN1/C(=C/C=C/c2oc3ccc(-c4ccccc4)cc3[n+]2CC)Oc2ccc(-c3ccccc3)cc21 | – | 360% (inactive) |
| Oc1ccc(N=Nc2ccc3c(c2)OCCO3)c2cccnc12 | 3140 nM | – |
| COc1cccc(N=Nc2ccc3cccnc3c2O)c1 | 712 nM | – |
| O=Nc1c(-c2cccc([N+](=O)[O-])c2)nc2ncccn12 | 9990 nM | – |
| Oc1ccc(N=Nc2ccc3c(c2)OCCO3)c2ncccc12 | 702 nM | – |
| O=C(Oc1c(Cl)cc(Cl)c2cccnc12)c1cccs1 | 659 nM | – |
| CCOc1ccc(N=Nc2ccc(O)c3ncccc23)cc1 | 289 nM | – |
| O=c1ccc(N=Nc2ccccc2)ccc1O | 1600 nM | – |
| Oc1c(CN2CCN(c3ccc(F)cc3)CC2)cc(Cl)c2cccnc12 | 1290 nM | – |
| O=[N+]([O-])c1ccc(O)c(/C=N/Nc2ccc(Cl)nn2)c1 | 1600 nM | – |

Source: PubChem BioAssay AID588634 (Broad Institute, 2011)
